# Where two headings read alike, the source gives them in different places.
# Assays:
# [1] = test system: southwestern corn borer larvae; test: Laboratory leaf dip test on southwestern corn borer larvae; type: in vivo; settings: foliar, 72 h after treatment, Btk 0.54 ppm, chlorantraniliprole 0.0009 ppm, read-out: % Efficacy
# Description: (§1) DiPel® DF was used as the source of Bacillus thuringiensis subsp. kurstaki and Coragen® was used as the source of chlorantraniliprole. The present invention is not limited to the products or formulation types used herein. In each example below, the studies were conducted as follows.
# (§2) For these tests, standardized laboratory leaf dip methods were used to inoculate plant material with treatment(s). Dry, treated leaves were placed into Petri dishes (100×25 mm) containing filter paper wetted with 500 μl of distilled H2O (“dH2O”). Each dish was then infested with between 5 and 10 larvae, dependent on species. Efficacy ratings were taken at specified intervals. Synergy ratings were calculated for each test.
# (§3) % Cexp=A+B−(AB/100), where % Cexp is the expected efficacy and “in which A and B are the control levels given by the single [insecticides]. If the ratio between the experimentally observed efficacy of the mixture Cobs and the expected efficacy of the mixture is greater than 1, synergistic interactions are present in the mixture.” (Gisi, Synergisitic Interaction of Fungicides in Mixtures, The American Phytopathological Society, 86:11, 1273-1279,1996). Adopting a conservative approach, Applicant determined synergy to be present at ratios of >1.15.
# corn earworm larvae = test: Laboratory leaf dip test on corn earworm larvae; type: in vivo; settings: Helicoverpa zea, foliar, Btk 0.54 ppm, chlorantraniliprole 0.0009 ppm, read-out: % Efficacy
# Description: as §1, §2, §3
# beet armyworm larvae = test: Laboratory leaf dip test on beet armyworm larvae; type: in vivo; settings: Spodoptera exigua, foliar, Btk 0.54 ppm, chlorantraniliprole 0.0009 ppm, read-out: % Efficacy
# Description: as §1, §2, §3
# soybean looper larvae = test: Laboratory leaf dip test on soybean looper larvae; type: in vivo, Chrysodeixis includens; settings: foliar, Btk 0.54 ppm, chlorantraniliprole 0.045 μg/ml, read-out: % Efficacy
# Description: as §1, §2, §3
# In this study, the response of soybean looper larvae to Bacillus thuringiensis subsp. kurstaki and chlorantraniliprole was observed.
# For this species, the same ppm of Bacillus thuringiensis subsp. kurstaki was used, but 0.045 μg/ml was used for chlorantraniliprole.
# diamondback moth larvae = test: Laboratory leaf dip test on diamondback moth larvae; type: in vivo; settings: Plutella xylostella, foliar, 24 h after treatment, Btk 0.54 ppm, chlorantraniliprole 0.0009 ppm, read-out: % Efficacy
# Description: as §1, with “The following examples illustrate the synergy of Bacillus thuringiensis subsp. kurstaki and chlorantraniliprole when controlling diamondback moth, beet armyworm, sugarcane borer, soybean looper, and corn earworm. DiPel®” for “DiPel®”
# For these tests, standardized laboratory leaf dip methods were used to inoculate plant material with treatment(s). Dry, treated leaves were placed into Petri dishes (100×25 mm) containing filter paper wetted with 500 μl of distilled H2O (“dH2O”). […] Synergy ratings were calculated for each test. […]
# % Cexp=A+B−(AB/100), where % Cexp is the expected efficacy and “in which A and B are the control levels given by the single [insecticides]. […] Adopting a conservative approach, Applicant determined synergy to be present at ratios of >1.15. […]
# In order to determine synergy, rates below normal field rate ranges must be used. If normal field rate ranges are used, all of the larvae would die (combining a lethal or near lethal dose of Bacillus thuringiensis subsp. kurstaki with a lethal dose of chlorantraniliprole would most likely lead to larvae death) in every treatment and synergy would not be able to be determined. […]
# cabbage looper larvae = test: Laboratory leaf dip test on cabbage looper larvae; type: in vivo; settings: Trichoplusia ni, foliar, Btk 0.54 ppm, chlorantraniliprole 0.0009 ppm, read-out: % Efficacy
# Description: as §1, §2, §3
# sugarcane borer larvae = test: Laboratory leaf dip test on sugarcane borer larvae; type: in vivo; settings: Diatraea saccharalis, foliar, Btk 0.54 ppm, chlorantraniliprole 0.0009 ppm, read-out: % Efficacy
# Description: as §1, §2, §3
structure (smiles),measurement,setting,value
CNC(=O)c1cc(Cl)cc(C)c1NC(=O)c1cc(Br)nn1-c1ncccc1Cl [Chlorantraniliprole],Emax at 0.0009 ppm,[1],31%
same,Emax at 0.0009 ppm,corn earworm larvae; 24 h after treatment,7%
same,Emax at 0.0009 ppm,corn earworm larvae; 48 h after treatment,20%
same,Emax at 0.0009 ppm,corn earworm larvae; 72 h after treatment,20%
same,Emax at 0.0009 ppm,beet armyworm larvae; 24 h after treatment,7%
same,Emax at 0.0009 ppm,beet armyworm larvae; 48 h after treatment,17%
same,Emax at 0.0009 ppm,beet armyworm larvae; 72 h after treatment,30%
same,Emax at 0.045 µg/mL,soybean looper larvae; 24 h after treatment,7%
same,Emax at 0.045 µg/mL,soybean looper larvae; 48 h after treatment,10%
same,Emax at 0.045 µg/mL,soybean looper larvae; 72 h after treatment,17%
same,Emax at 0.0009 ppm,diamondback moth larvae,12%
same,Emax at 0.0009 ppm,cabbage looper larvae; 24 h after treatment,46%
same,Emax at 0.0009 ppm,cabbage looper larvae; 48 h after treatment,46%
same,Emax at 0.0009 ppm,sugarcane borer larvae; 24 h after treatment,10%
same,Emax at 0.0009 ppm,sugarcane borer larvae; 48 h after treatment,10%
same,Emax at 0.0009 ppm,sugarcane borer larvae; 72 h after treatment,19%

# Reference: patent US10136647B2, “Synergistic Bacillus thuringiensis subsp. kurstaki and chlorantraniliprole mixtures for diamondback moth, beet armyworm, sugarcane borer, soybean looper and corn earworm control” (priority 2015, dated 2018)
